In patent publication US8158631B2, “Heterocyclic antiviral compounds” (Roche Palo Alto LLC, priority 2009, dated 2012):

Assays:
[1] = in vitro; conditions: human
[2] = test system: HCV replicon cells (2209-23), genotype 1b replicon in Huh7 cells; experiment: HCV replicon assay (Renilla luciferase reporter); format: cell-based, HCV genotype 1b; human hepatoma Huh7 cells; conditions: Hepatitis C virus, Huh-7, 72 h, 2209-23 cells, three days incubation
[3] = target: T1, HCV polymerase (NS5B570n-Con1) (Hepatitis C virus genotype 1b, UniProt Q9WMX2); experiment: HCV NS5B RNA polymerase activity (HCV Polymerase Assay); format: biochemical, HCV Con1 strain
T1 construct: contains a 21 amino acid deletion at the C-terminus relative to the full-length HCV polymerase; made in house; host or cells: E. coli strain BL21(DE) pLysS, plasmid pET17b
Experimental: The enzymatic activity of HCV polymerase (NS5B570n-Con1) was measured as the incorporation of radiolabeled nucleotide monophosphates into acid insoluble RNA products. Unincorporated radiolabeled substrate was removed by filtration and scintillant was added to the washed and dried filter plate containing radiolabeled RNA product. The amount of RNA product generated by NS5B570-Con1 at the end of the reaction was directly proportional to the amount of light emitted by the scintillant.
The N-terminal 6-histidine tagged HCV polymerase, derived from HCV Con1 strain, genotype 1b (NS5B570n-Con1) contains a 21 amino acid deletion at the C-terminus relative to the full-length HCV polymerase and was purified from E. coli strain BL21(DE) pLysS. The construct, containing the coding sequence of HCV NS5B Con1 (GenBank accession number AJ242654) was inserted into the plasmid construct pET17b, downstream of a T7 promoter expression cassette and transformed into E. coli. A single colony was grown overnight as a starter culture and later used inoculate 10 L of LB media supplemented with 100 μg/mL ampicillin at 37° C. Protein expression was induced by the addition of 0.25 mM isopropyl-β-D-thiogalactopyranoside (IPTG) when optical density at […] of the culture was between 0.6 and 0.8 and cells were harvested after 16 to 18 h at 30° C. NS5B570n-Con1 was purified to homogeneity using a three-step protocol including subsequent column chromatography on Ni-NTA, SP-Sepharose HP and Superdex 75 resins.
Each 50 μL enzymatic reaction contained 20 nM RNA template derived from the complementary sequence of the Internal Ribosome Entry Site (cIRES), 20 nM NS5B570n-Con1 enzyme, 0.5 μCi of tritiated UTP (Perkin Elmer catalog no. TRK-412; specific activity: 30 to 60 Ci/mmol; stock solution concentration from 7.5×10^−5 M to 20.6×10^−6 M), 1 μM each ATP, CTP, and GTP, 40 mM Tris-HCl pH 8.0, 40 mM NaCl, 4 mM DTT (dithiothreitol), 4 mM MgCl2, and 5 μL of compound serial diluted in DMSO. Reaction mixtures were assembled in 96-well filter plates (cat #MADVNOB, Millipore Co.) and incubated for 2 h at 30° C. Reactions were stopped by addition of 10% final (v/v) trichloroacetic acid and incubated for 40 min at 4° C. Reactions were filtered, washed with 8 reaction volumes of 10% (v/v) trichloroacetic acetic acid, 4 reaction volumes of 70% (v/v) ethanol, air dried, and 25 μL of scintillant (Microscint 20, Perkin-Elmer) was added to each reaction well.
The amount of light emitted from the scintillant was converted to counts per minute (CPM) on a Topcount® plate reader (Perkin-Elmer, Energy Range: Low, Efficiency Mode Normal, Count Time: 1 min, Background Subtract: none, Cross talk reduction: Off).
Data was analyzed in Excel® (Microsoft®) and ActivityBase® (Idbs®). The reaction in the absence of enzyme was used to determine the background signal, which was subtracted from the enzymatic reactions. Positive control reactions were performed in the absence of compound, from which the background corrected activity was set as 100% polymerase activity. All data was expressed as a percentage of the positive control.
The compound concentration at which the enzyme-catalyzed rate of RNA synthesis was reduced by 50% (IC50) was calculated by fitting equation (i) to the data where“Y”
[formula] corresponds to the relative enzyme activity (in %), “% Min” is the residual relative activity at saturating compound concentration, “% Max” is the relative maximum enzymatic activity, “X” corresponds to the compound concentration, and “S” is the Hill coefficient (or slope).

Row | SMILES | CC50 [1] [nM] | IC50 [2] [nM] | IC50 [3] [nM] | melting point [°C]
1 | COc1c(/C=C/c2ccc(NS(C)(=O)=O)cc2)cc(N2CCC(C)(C)NC2=O)cc1C(C)(C)C [Compound I-5, N-(4-{(E)-2-[3-tert-Butyl-5-(4,4-dimethyl-2-oxo-tetrahydro-pyrimidin-1-yl)-2-methoxy-phenyl]-vinyl}-phenyl)-methanesulfonamide] | 13800 | 19 | 1 | –
2 | COc1c(/C=C/c2ccc(NS(C)(=O)=O)cc2)cc(-n2ccncc2=O)cc1C(C)(C)C [Compound I-13] | 21400 | 18.6 | 0.31 | 214 to 216
